The target in test [1] is T1, hemoglobin in stool samples (Homo sapiens, UniProt P68871+P69905). Nature of the test: 7-Day shipping simulation, hemoglobin % recovery by ELISA. Further details: from tissue; host or cells: stool samples. On the procedure:
(§1) To assess the stability of hemoglobin in stool samples, samples were exposed to simulated shipping stress conditions using a thermal cycler. […] An ELISA based detection method is used to determine the hemoglobin concentrations of samples before and after exposure to the shipping simulation. Hemoglobin stability is calculated as a % recovery of hemoglobin after the samples have been exposed to the shipping simulation.
To assess the stability of hemoglobin in stool samples beyond 3 days, a 7-Day shipping simulation was created.

In test [2] the target is T1, hemoglobin in stool samples. The test is described as follows: 3-Day extreme temperature shipping simulation, hemoglobin % recovery by ELISA. Also noted: from tissue; host or cells: stool samples. The procedure: as §1
As an additional challenge, a shipping simulation meant to represent a “worst case” scenario was created using extreme temperatures.

The target in a further test is T2, Hb (Homo sapiens, UniProt P68871+P69905).
T2 construct: To assess the stability of hemoglobin in stool samples, samples were exposed to simulated shipping stress conditions; from tissue; host or cells: stool samples
T2 sequence (P69905 2-142 limits assumed): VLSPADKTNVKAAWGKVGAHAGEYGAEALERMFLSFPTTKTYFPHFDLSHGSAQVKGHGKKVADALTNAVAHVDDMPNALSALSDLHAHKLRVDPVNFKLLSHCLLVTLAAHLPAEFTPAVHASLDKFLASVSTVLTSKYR
T2 sequence (P68871 2-147 limits assumed): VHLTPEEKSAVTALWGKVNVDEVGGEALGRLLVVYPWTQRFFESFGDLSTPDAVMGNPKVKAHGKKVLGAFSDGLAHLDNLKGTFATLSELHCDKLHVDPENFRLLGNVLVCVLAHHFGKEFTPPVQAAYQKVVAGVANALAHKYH
The test is described as follows: Appendix B additive screen, % Hb Recovery.

Test [3] has as its target T1, hemoglobin in stool samples. The test is described as follows: Accelerated shipping simulation (35C 16 hour challenge), hemoglobin % recovery by ELISA.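 Further: stool hemoglobin measured by ELISA before and after thermal-cycler shipping stress, stability given as percent of pre-stress hemoglobin recovered afterwards.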 Also noted: from tissue; host or cells: stool samples.
Test [4] has the same target. Nature of the test: 3-Day shipping simulation, hemoglobin % recovery by ELISA.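 Further: stool samples put through shipping stress in a thermal cycler, hemoglobin quantified by ELISA before and after, stability given as post-stress % of the pre-stress level.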 Further details: from tissue; host or cells: stool samples.
The next test addresses T3, hemoglobin (Hb) (Homo sapiens, UniProt P68871+P69905).
T3 construct: To assess the stability of hemoglobin in stool samples, samples were exposed to simulated shipping stress conditions; from tissue; host or cells: stool samples
Nature of the test: Appendix B: additives in Hb Collection Buffer, % Hb Recovery.

The mark [5] stands for this setting: additive concentrations as in the 9th table.
Where [6] appears, read: additive concentrations as in the 10th table.
Where [7] appears, read: additive concentrations as in the 8th table.
Where [8] appears, read: concentrations and buffer pH 6.5 or 7.4 as in the 14th table.
Where [9] appears, read: concentrations and buffer pH 6.5 or 7.4 as in the 15th table.
The mark [10] stands for this setting: concentrations and buffer pH 6.5 or 7.4 as in the 13th table.

T3 sequence (P69905 2-142 limits assumed): as the sequence (P69905 2-142 limits assumed) above
T3 sequence (P68871 2-147 limits assumed): as the sequence (P68871 2-147 limits assumed) above
T1 sequence (P69905 2-142 limits assumed): as the sequence (P69905 2-142 limits assumed) above
T1 sequence (P68871 2-147 limits assumed): as the sequence (P68871 2-147 limits assumed) above

For `C[N+](C)(C)CC(=O)O` [Betaine], the “Notes (Hb stability vs Hb Collection Buffer)” value in test [1] (setting [5]), in test [2] (setting [6]) and in test [4] (setting [7]) was “Improved Hb” throughout. Also, the Results entry at Hb is “Betaine shows improvement”; in test [3] (additive concentration 50 uM), “No Improvement”; in test [3] (additive concentration 500 uM), “No Improvement”; in test [3] (additive concentration 50 mM), “No Improvement”; in test [3] (additive concentration 96 mM), “No Improvement”; in test [3] (additive concentration 3.5M) it was “Improvement”. The Results result in test [4] (Additive Concentration 1M), in test [4] (additive concentration 0.05M), in test [4] (additive concentration 0.5M), in test [4] (additive concentration 1.25M), in test [4] (additive concentration 3M) and in test [4] (additive concentration 3.5M) was “Betaine shows improvement” in each case. Also, the Results entry in test [4] (additive concentration 3.75M), in test [4] (additive concentration 4M), in test [4] (additive concentration 5M) and in test [4] (additive concentration […]) was “Betaine shows improvement” throughout.

For the compound `C=CC1=C(C)c2cc3[n-]c(cc4[n-]c(cc5nc(cc1n2)C(C)=C5C=C)c(C)c4CCC(=O)O)c(CCC(=O)O)c3C.[Cl-].[Fe+3]` [Hemin], the “Notes (Hb stability vs Hb Collection Buffer)” value in test [1] (setting [8]), in test [2] (setting [9]) and in test [4] (setting [10]) was “Improved” in each case. Moreover, the Results entry was “Improvement” in test [3] (additive concentration 0.0003%, pH 6.5); “Improvement in % Hb” in test [3] (additive concentration 0.0003%; pH 6.4); “Improvement in % Hb” in test [3] (additive concentration 0.0003%; pH 6.5); “Improvement in % Hb” in test [3] (additive concentration 0.0003%; pH 6.6); “Improvement in % Hb” in test [3] (additive concentration 0.0003%; pH 6.7); “Improvement in % Hb” in test [3] (additive concentration 0.0003%; pH 6.8). The Results result in test [3] (additive concentration 0.0003%; pH 6.9), in test [3] (additive concentration 0.0003%; pH 7.0), in test [3] (additive concentration 0.0003%; pH 7.1), in test [3] (additive concentration 0.0003%; pH 7.2), in test [3] (additive concentration 0.0003%; pH 7.3) and in test [3] (additive concentration 0.0003%; pH 7.4) was “Improvement in % Hb” in each case. Moreover, the Results entry in test [3] (additive concentration 0.0003%; pH 7.5) is “Improvement in % Hb”.

For `[Cl-].[Cl-].[Mg+2]` [Magnesium Chloride], the Results result (at Hb; in test [4] (additive concentration 5 mM); in test [4] (additive concentration 10 mM); in test [4] (additive concentration 20 mM); in test [4] (additive concentration 30 mM); in test [4] (additive concentration 40 mM)) was “Magnesium Cation shows” in each case. The Results result in test [4] (additive concentration 50 mM) is “Magnesium Cation shows”.

`O=S(=O)([O-])[O-].[Mg+2]` [Magnesium Sulfate]: the “Notes (Hb stability vs Hb Collection Buffer)” value in test [1] (setting [5]), in test [2] (setting [6]) and in test [4] (setting [7]) was “Improved Hb” throughout. Moreover, the Results result on hemoglobin (Hb) (Additive Concentration 10 mM) is “Improvement in % Hb”; in test [3] (additive concentration 10 mM), “Improvement”; in test [4] (Additive Concentration 10 mM), “Magnesium Cation shows”; in test [4] (additive concentration 0.001M), “Magnesium Cation shows”; in test [4] (additive concentration 5 mM), “Magnesium Cation shows”; in test [4] (additive concentration 0.01M), “Magnesium Cation shows”. For the same compound, the Results result in test [4] (additive concentration 10 mM), in test [4] (additive concentration 20 mM), in test [4] (additive concentration 30 mM), in test [4] (additive concentration 40 mM), in test [4] (additive concentration 0.05M) and in test [4] (additive concentration 50 mM) was “Magnesium Cation shows” each time.

For the compound `C=CC1=C(C)c2cc3[n-]c(cc4nc(cc5[n-]c(cc1n2)c(C)c5C=C)C(C)=C4CCC(=O)O)c(CCC(=O)O)c3C.[Zn+2]` [Protoporphyrin IX Zn, Protoporphyrin IX Zinc], the “Notes (Hb stability vs Hb Collection Buffer)” value in test [1] (setting [8]), in test [2] (setting [9]) and in test [4] (setting [10]) was “Improved” throughout. In addition, the Results entry is reported as “No Improvement” on hemoglobin (Hb) (Additive Concentration 0.001 uM); “Improvement in % Hb” at hemoglobin (Hb) (Additive Concentration 0.01 uM); “Improvement in % Hb” on hemoglobin (Hb) (Additive Concentration 0.1 uM); “Improvement in % Hb” on hemoglobin (Hb) (Additive Concentration 1 uM); “Improvement in % Hb” at hemoglobin (Hb) (additive concentration 10 uM); “Improvement in % Hb” on hemoglobin (Hb) (additive concentration 100 uM). Also, the Results result is listed as “Improvement” in test [3] (additive concentration 1 uM, pH 6.5) and “Improvement” in test [3] (additive concentration 1 uM, pH 7.4).

On to `CC(=O)[O-].[Na+]` [Sodium Acetate], for which, at Hb, the Results entry is “No Improvement”.

As to `O=C([O-])c1ccccc1.[Na+]` [Sodium Benzoate], the Results result on Hb is listed as “No Improvement”; in test [4] (Additive Concentration 0.03%), “No improvement”; in test [4] (Additive Concentration 0.04%), “No improvement”; in test [4] (Additive Concentration 0.05%), “No improvement”; in test [4] (Additive Concentration 0.06%), “No improvement”; in test [4] (Additive Concentration 0.10%), “No improvement”. Moreover, the Results result in test [4] (Additive Concentration 0.50%) and in test [4] (Additive Concentration 1%) was “No improvement” in each case.

For `O=C([O-])O.[Na+]` [Sodium Bicarbonate], the Results result (at Hb; in test [3] (additive concentration 0.0000895 mM); in test [3] (additive concentration 0.000895 mM); in test [3] (additive concentration 0.00895 mM); in test [3] (additive concentration 0.0895 mM); in test [3] (additive concentration 0.895 mM)) was “No Improvement” throughout. In addition, the Results result in test [3] (additive concentration 8.95 mM) is listed as “No Improvement”.

`O=S([O-])O.[Na+]` [Sodium Bisulfite]: on Hb, the Results result is reported as “No Improvement”.

Take `[Br-].[Na+]` [Sodium Bromide]: the Results entry on Hb is recorded as “No Improvement”.

On to `O=C([O-])[O-].[Na+].[Na+]` [Sodium Carbonate], for which the Results entry on Hb is “No Improvement”.

Regarding `[O-][Cl+3]([O-])([O-])O` [Sodium Perchlorate], the Results result on Hb is “No Improvement”.

On to `O=P(O)(O)O` [Sodium Phosphate], for which the Results result at Hb was “No Improvement”.

On to `C[N+](C)(C)[O-]` [Trimethylamine N-oxide (TMANO)], for which the Results entry is listed as “No Improvement” on Hb; “No Improvement” in test [3] (additive concentration 500 uM); “No Improvement” in test [3] (additive concentration 5 mM); “No Improvement” in test [3] (additive concentration 50 mM); “No Improvement” in test [3] (additive concentration 87 mM); “Slight Improvement” in test [4] (additive concentration 1.1M). For the same compound, the Results entry in test [4] (additive concentration 2.15M) is “Slight Improvement”; in test [4] (additive concentration 3M), “No Improvement”; in test [4] (additive concentration 3.5M) it was “No Improvement”; in test [4] (additive concentration 4M) it was “No Improvement”.

In the case of Calcium Gluconate, the Results result on Hb was “No Improvement”.

Consider Magnesium Gluconate, for which the Results result is given as “No Improvement” at Hb; “No Improvement” in test [3] (additive concentration 1.2 uM); “No Improvement” in test [3] (additive concentration 12 uM); “No Improvement” in test [3] (additive concentration 120 uM); “Magnesium Cation shows” in test [4] (additive concentration 5 mM); “Magnesium Cation shows” in test [4] (additive concentration 10 mM). Besides, the Results entry in test [4] (additive concentration 20 mM), in test [4] (additive concentration 30 mM), in test [4] (additive concentration 40 mM) and in test [4] (additive concentration 50 mM) was “Magnesium Cation shows” each time.

In the case of Sodium hydroxylmethyl glycinate, the Results result at Hb is on record as “No Improvement”.

As to phosphatidylcholine, at Hb, the Results result was “No Improvement”.
